Assay results published in patent US20110160228A1, “DIHYDRO-ISO-CA-4 AND ANALOGUES: POTENT CYTOTOXICS, INHIBITORS OF TUBULIN POLYMERIZATION” (CENTRE NATIONAL DE LA RECHERCHE SCIENRIFIQUE (CNRS), priority 2008, published 2011).
Like-named read-outs stand apart in the source and are kept apart here. Values belong to the compound of their own block, whether it stands above or below them.

Key:
[1] = molecular target: T1, tubulin (Sus scrofa, UniProt P02550+P02554); assay: Inhibition of tubulin polymerization followed by turbidimetry; format: biochemical, porcine; conditions: for Inhibiting activity of tubulin polymerisation, in words: compared with CA-4 or between the enantiomers; for IC50: tubulin from porcine brain, turbidimetry at 350 nm
T1 construct: from porcine brain in which it forms 20 to 25% of soluble proteins; from tissue; host or cells: porcine brain
Description: These tests were conducted on tubulin purified using the Shelanski method (Shelanski, M. C.; Gaskin, F.; Cantor, C. R. Proc. Natl. Acad. Sci. USA, 1973, 70, 765-768) from porcine brain in which it forms 20 to 25% of soluble proteins. The purification method is based on temperature-dependent assembly-disassembly cycles. Polymerisation of tubulin was followed by turbidimetry using the Gaskin method (Gaskin, F.; Cantor, C. R.; Shelanski, M. L.; J. Bio. Mol., 1974, 89, 737) at a wavelength of 350 nm. The different samples were dissolved in DMSO and incubated 10 minutes at 37° C. then 5 minutes at 0° C.
The compound CA-4 and DMSO were used as reference.

[2] = test system: mouse P-388 leukemia cells; conditions: cited from earlier work
[3] = test system: HCT-15 cells; conditions: read-out: IC50, cytotoxic effect; cited from earlier work
[4] = test system: mouse colon adenocarcinoma 26; conditions: cited from earlier work
[5] = cited from earlier work
[6] = test system: HCT116; assay: In vitro cytotoxicity, cell viability with CellTiter-Blue; format: cell-based; conditions: Homo sapiens, HCT-116, 72 h
Description: (§1) The biological activity of the compounds of the invention was studied in vitro on 7 human cancer cell lines of different tissular origin (HCT116: coloreactal carcinoma; K562: chronic myeloid leukaemia; B16-F10: melanoma; U87: glioblastoma; H1299: non-small cell lung cancer and MDA-MB 231 and MDA-MB 435: breast cancer). The cells chosen for this study were incubated at 37° C. in the presence of one of the compounds added to the culture medium at different concentrations. All the experiments conducted allowed determination of the extent of toxicity of the tested compound, effect thereof on the cell cycle process and capacity thereof to induce cell death by apoptosis.
(§2) The cancer cell lines were obtained from the American Type Culture Collection (Rockville, Md., USA) and were cultured following the supplier's recommendations.
The cells H1299, U87, MDA-MB231, MDA-MB435 and B16F10 were cultured in Dulbecco Minimal Essential Medium (DMEM) containing 4.5 g/l glucose, supplemented with 10% foetal calf serum and 1% glutamine. The K562 and HCT116 cells were cultured in RPMI 1640 medium containing 10% foetal calf serum and 1% glutamine. All the cell lines were held in culture at 37° C. in a humid atmosphere containing 5% CO2. Cell viability was evaluated using the reagent CellTiter-Blue™ (Promega, Wis., USA) paying heed to the manufacturer's instructions. The cells were seeded in 96-well culture plates to the proportion of 5000 cells per well in 50 μl culture medium. […] All the compounds were tested in triplicate for each defined concentration, and each experiment was repeated 3 times. After 72 hours of incubation, 20 μl resazurin were added to each well. After 2 hours of incubation, the emitted fluorescence was measured at 590 nm after excitation at 560 nm using a fluorescence reader of Victor type (Perkin-Elmer, USA).

[7] = test system: MDA-MB 231; assay: as above; format: cell-based; conditions: Homo sapiens, read-out: IC50 for different cell lines, M231
Description: as §1, §2
The cells H1299, U87, MDA-MB231, MDA-MB435 and B16F10 were cultured in Dulbecco Minimal Essential Medium (DMEM) containing 4.5 g/l glucose, supplemented with 10% foetal calf serum and 1% glutamine. […] Cell viability was evaluated using the reagent CellTiter-Blue™ (Promega, Wis., USA) paying heed to the manufacturer's instructions. […] After 2 hours of incubation, the emitted fluorescence was measured at 590 nm after excitation at 560 nm using a fluorescence reader of Victor type (Perkin-Elmer, USA).

[8] = test system: EAhy926; assay: Formation of vascular tubes on Matrigel (anti-vascular activity); format: cell-based, human; conditions: treatment time of 3 hours at 0.5 μM or 1 μM
Description: The Matrigel™ is deposited in 96-well culture plates to the proportion of 70 μl/well and left to incubate at 37° C. for 45 minutes to allow polymerization thereof. […] After 3 hours of incubation at 37° C., the cells were observed and photographed using an optical microscope of TE2000 type (Nikon, France) equipped with a camera (FIG. 3).
In parallel, 15,000 EAhy926 cells in suspension in 150 μl of culture medium were seeded in each of the wells containing Matrigel™. […] The effect of the product was observed and photographed after 3 hours of incubation using an optical microscope (FIG. 4).

[9] = 72 hours of incubation, read-out: IC50 for different cell lines, HCT116

T1 sequence (P02554 whole entry): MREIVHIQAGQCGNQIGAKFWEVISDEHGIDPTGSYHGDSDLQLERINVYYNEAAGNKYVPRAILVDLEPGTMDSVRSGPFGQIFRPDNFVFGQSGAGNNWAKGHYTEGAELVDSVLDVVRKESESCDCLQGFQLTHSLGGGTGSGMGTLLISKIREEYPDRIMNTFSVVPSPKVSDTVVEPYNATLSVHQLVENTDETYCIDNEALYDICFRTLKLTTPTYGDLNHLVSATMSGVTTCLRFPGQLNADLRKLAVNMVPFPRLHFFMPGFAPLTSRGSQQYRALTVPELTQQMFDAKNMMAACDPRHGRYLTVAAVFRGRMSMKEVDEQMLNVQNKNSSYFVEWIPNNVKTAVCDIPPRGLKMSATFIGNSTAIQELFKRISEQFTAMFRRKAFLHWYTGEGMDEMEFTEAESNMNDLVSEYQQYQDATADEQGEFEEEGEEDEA
T1 sequence (P02550 whole entry): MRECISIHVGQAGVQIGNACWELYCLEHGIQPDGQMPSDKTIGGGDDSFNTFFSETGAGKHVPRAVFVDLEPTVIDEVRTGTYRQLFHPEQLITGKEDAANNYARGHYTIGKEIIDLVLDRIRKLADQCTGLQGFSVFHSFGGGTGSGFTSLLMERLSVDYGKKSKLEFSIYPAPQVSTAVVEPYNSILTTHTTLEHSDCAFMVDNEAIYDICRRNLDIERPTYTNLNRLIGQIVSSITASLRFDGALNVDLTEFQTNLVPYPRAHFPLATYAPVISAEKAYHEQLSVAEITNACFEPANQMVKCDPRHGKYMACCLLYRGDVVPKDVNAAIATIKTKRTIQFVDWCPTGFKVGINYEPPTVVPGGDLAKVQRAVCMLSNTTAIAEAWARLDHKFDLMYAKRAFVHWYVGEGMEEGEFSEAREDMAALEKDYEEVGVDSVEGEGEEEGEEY

- IC50 [1]: 5000 to 6000 nM
Compound: COc1ccc(C(C)c2cc(OC)c(OC)c(OC)c2)cc1O (single isomer, unassigned) [Compound I-1a]
- Inhibiting activity of tubulin polymerisation, in words [1]: the same capacity to inhibit tubulin polymerisation

- IC50 [1]: 6700 to 8000 nM
Compound: COc1ccc(C(C)c2cc(OC)c(OC)c(OC)c2)cc1O (single isomer, unassigned) [Compound I-1b]
- Inhibiting activity of tubulin polymerisation, in words [1]: the same capacity to inhibit tubulin polymerisation

Compound: COc1ccc(C=Cc2cc(OC)c(OC)c(OC)c2)cc1O (single isomer, unassigned) [E isomer of CA-4]
- Cytotoxic activity, times lower than the natural Z isomer [2]: approximately 60 times

Compound: COc1ccc(/C=C\c2cc(OC)c(OC)c(OC)c2)cc1O [CA-4, combretastatin A-4]
- IC50 [3]: 0.9 nM
- Antitumor activity in vivo [4]: no antitumor activity is observed
- Solubility in water [5]: low solubility in water

- IC50 [1]: 3200 nM
Compound: COc1ccc(C(C)c2cc(OC)c(OC)c(OC)c2)cc1O (centres unmarked) [Compound I-1]

Compound: COc1ccc(C(C)c2cc(OC)c(OC)c(OC)c2)cc1F (centres unmarked) [Compound I-9]
- IC50 [6, 9]: 85 nM
- IC50 [1]: 6000 nM

Compound: COc1ccc(C(C)c2cc(OC)c(OC)c(OC)c2)cc1OC(=O)CN(C)C (centres unmarked) [Compound I-14]
- IC50 ([6]; 72 hours of incubation, in DMSO, read-out: IC50 for different cell lines, HCT116): 50 nM
- IC50 ([6]; 72 hours of incubation, in water, read-out: IC50 for different cell lines, HCT116): 90 nM
- IC50 ([7]; MDA-MB-231, 72 hours of incubation, in DMSO): 50 nM

Compound: COc1ccc(C(C)c2cc(OC)c(OC)c(OC)c2)cc1OP(=O)(O)O (centres unmarked) [Compound I-16]
- IC50 ([6]; read-out: IC50 for different cell lines, HCT116, 72 hours of incubation, in DMSO): 90 nM
- IC50 ([6]; read-out: IC50 for different cell lines, HCT116, 72 hours of incubation, in water): 100 nM
- IC50 ([7]; MDA-MB-231, 72 h): 50 nM
- Number of vascular tubes [8]: major decrease in the number of vascular tubes

- IC50 [1]: 11000 nM
Compound: COc1cc(OC)cc(C(C)c2ccc(OC)c(O)c2)c1 (centres unmarked) [Compound I-18]

Compound: COc1ccc(C(CC#N)c2cc(OC)c(OC)c(OC)c2)cc1O (centres unmarked) [Compound I-19]
- IC50 [6, 9]: 80 nM

Compound: COc1ccc(C(c2cc(OC)c(OC)c(OC)c2)C(F)F)cc1O (centres unmarked) [Compound I-20]
- IC50 [6, 9]: 30 nM

Compound: COc1ccc(C(C)c2cc(OC)c(OC)c(OC)c2)cc1N (centres unmarked) [Compound I-21]
- IC50 ([6]; read-out: IC50 for different cell lines, HCT116, 72 hours of incubation): 60 nM

- IC50 [1]: 11000 nM
Compound: COc1cc(OC)cc(C(C)c2ccc(OC)c(N)c2)c1 (centres unmarked) [Compound I-38]
